Target: HPK1 (MAP4K1) (Homo sapiens, UniProt Q92918)
Assay: FRET Assay for HPK1 (MAP4K1): one step binding assay, displacement of labeled tracer
Settings: for inhibition at 1 µM: 1 μM compound; for inhibition at 1 µM / inhibition at 10 µM: FRET ratio 665/620, percent of control; for inhibition at 10 µM: 10 μM compound; for IC50: dose response curve, nonlinear regression
How it was run: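 TR-FRET tracer-displacement binding assay. GST-tagged HPK1 (10 nM) and Eu-anti-GST antibody (4 nM) were pre-incubated with compound on ice for 15 min in 50 mM HEPES pH 7.5, 10 mM MgCl2, 1 mM EGTA, 0.01% Brij-35 (3% DMSO final). Kinase Tracer 222 (20 nM) was then added for 1 h at room temperature. IC50 came from nonlinear regression of percent of control; percent inhibition was also given at 1.0 and 10.0 μM.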

Sequence of HPK1 (MAP4K1) (Q92918 whole entry): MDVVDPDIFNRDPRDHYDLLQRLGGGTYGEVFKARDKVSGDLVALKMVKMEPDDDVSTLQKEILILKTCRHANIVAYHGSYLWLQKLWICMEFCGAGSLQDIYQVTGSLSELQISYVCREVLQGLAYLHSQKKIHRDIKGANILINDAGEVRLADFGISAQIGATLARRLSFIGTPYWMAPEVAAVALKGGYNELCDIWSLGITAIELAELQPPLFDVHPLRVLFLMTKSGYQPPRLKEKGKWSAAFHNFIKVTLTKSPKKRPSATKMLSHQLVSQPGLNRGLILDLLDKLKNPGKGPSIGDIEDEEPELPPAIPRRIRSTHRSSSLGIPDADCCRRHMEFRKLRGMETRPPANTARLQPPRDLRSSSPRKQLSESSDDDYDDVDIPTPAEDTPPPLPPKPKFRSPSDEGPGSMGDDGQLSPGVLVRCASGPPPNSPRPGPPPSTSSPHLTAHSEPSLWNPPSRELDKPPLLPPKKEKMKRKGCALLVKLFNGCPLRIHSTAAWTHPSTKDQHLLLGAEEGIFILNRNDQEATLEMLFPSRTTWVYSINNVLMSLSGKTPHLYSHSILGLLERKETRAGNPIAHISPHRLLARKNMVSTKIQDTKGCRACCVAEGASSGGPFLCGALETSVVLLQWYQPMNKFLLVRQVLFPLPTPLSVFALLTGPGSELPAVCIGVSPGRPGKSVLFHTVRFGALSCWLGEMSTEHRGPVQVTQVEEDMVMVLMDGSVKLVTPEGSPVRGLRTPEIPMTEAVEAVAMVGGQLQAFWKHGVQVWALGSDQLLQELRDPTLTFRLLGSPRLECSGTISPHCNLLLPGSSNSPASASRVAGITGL

inhibition at 1 µM	inhibition at 10 µM	IC50	Structure (SMILES)
69.6%	63.9%	< 0.05 µM	CCn1ccc(N/C(C)=C2\C(=O)Nc3cnc(-c4cnccc4C)cc32)n1 [Example 73, (Z)-3-(1-((1-Ethyl-1H-pyrazol-3-yl)amino)ethylidene)-5-(4-methylpyridin-3-yl)-1H-pyrrolo[2,3-c]pyridin-2(3H)-one]
76.3%	–	< 0.05 µM	C/C(Nc1ccc(N2CCNCC2)cn1)=C1/C(=O)Nc2cnc(-c3cnccc3C)cc21 [Example 74, (Z)-5-(4-Methylpyridin-3-yl)-3-(1-((5-(piperazin-1-yl)pyridin-2-yl)amino)ethylidene)-1H-pyrrolo[2,3-c]pyridin-2(3H)-one]
71%	74%	< 0.05 µM	CNC(=O)c1cc(N/C(C)=C2\C(=O)Nc3cnc(-c4cnccc4C)cc32)nn1C [Example 75, (Z)-N,1-Dimethyl-3-((1-(5-(4-methylpyridin-3-yl)-2-oxo-1H-pyrrolo[2,3-c]pyridin-3(2H)-ylidene)ethyl)amino)-1H-pyrazole-5-carboxamide]
70.3%	69%	< 0.05 µM	C/C(Nc1ccn(C2COC2)n1)=C1/C(=O)Nc2cnc(-c3cnccc3C)cc21 [Example 76, (Z)-5-(4-Methylpyridin-3-yl)-3-(1-((1-(oxctan-3-yl)-1H-pyrazol-3-yl)amino)ethylidene)-1H-pyrrolo[2,3-c]pyridin-2(3H)-one]
73%	80.3%	< 0.05 µM	C/C(Nc1ccc(N2CCN(C3COC3)CC2)nc1)=C1/C(=O)Nc2cnc(-c3cnccc3C)cc21 [Example 77, (Z)-5-(4-Methylpyridin-3-yl)-3-(1-((6-(4-(oxetan-3-yl)piperazin-1-yl)pyridin-3-yl)amino)ethylidene)-1H-pyrrolo[2,3-c]pyridin-2(3H)-one]
84.2%	83.1%	< 0.05 µM	C/C(Nc1cnn(CC(C)(C)O)c1)=C1/C(=O)Nc2cnc(-c3cnccc3C)cc21 [Example 78, (Z)-3-(1-((1-(2-Hydroxy-2-methylpropyl)-1H-pyrazol-4-yl)amino)ethylidene)-5-(4-methylpyridin-3-yl)-1H-pyrrolo[2,3-c]pyridin-2(3H)-one]
75.1%	78%	< 0.05 µM	CCS(=O)(=O)n1cc(N/C(C)=C2\C(=O)Nc3cnc(-c4cnccc4C)cc32)cn1 [Example 80, (Z)-3-(1-((1-(Ethylsulfonyl)-1H-pyrazol-4-yl)amino)ethylidene)-5-(4-methylpyridin-3-yl)-1H-pyrrolo[2,3-c]pyridin-2(3H)-one]
73.8%	82.2%	< 0.05 µM	C/C(Nc1ccn(C(F)F)n1)=C1/C(=O)Nc2cnc(-c3cnccc3C)cc21 [Example 81, (Z)-3-(1-((1-(Difluoromethyl)-1H-pyrazol-3-yl)amino)ethylidene)-5-(4-methylpyridin-3-yl)-1H-pyrrolo[2,3-c]pyridin-2(3H)-one]
70.6%	79.9%	< 0.05 µM	COc1cccc(F)c1-c1cc2c(cn1)NC(=O)/C2=C(/C)Nc1cnn(C(C)(C)C#N)c1 [Example 82, (Z)-2-(4-((1-(5-(2-Fluoro-6-methoxyphenyl)-2-oxo-1H-pyrrolo[2,3-c]pyridin-3(2H)-ylidene)ethyl)amino)-1H-pyrazol-1-yl)-2-methylpropanenitrile]
27.7%	43.5%	–	C/C(Nc1ccn(C2CCOCC2)n1)=C1/C(=O)Nc2cnc(-c3cnccc3C)cc21 [Example 83, (Z)-5-(4-Methylpyridin-3-yl)-3-(1-((1-(tetrahydro-2H-pyran-4-yl)-1H-pyrazol-3-yl)amino)ethylidene)-1H-pyrrolo[2,3-c]pyridin-2(3H)-one]
75.2%	70.4%	< 0.05 µM	C/C(Nc1ccc(OC2CCNCC2)nc1)=C1/C(=O)Nc2cnc(-c3cnccc3C)cc21 [Example 84, (Z)-5-(4-Methylpyridin-3-yl)-3-(1-((6-(piperidin-4-yloxy)pyridin-3-yl)amino)ethylidene)-1H-pyrrolo[2,3-c]pyridin-2(3H)-one]
78.2%	–	< 0.05 µM	C/C(Nc1cnn(C)c1)=C1/C(=O)Nc2cnc(-c3cncc4c3OCC(=O)N4)cc21 [Example 85, (Z)-8-(3-(1-((1-Methyl-1H-pyrazol-4-yl)amino)ethylidene)-2-oxo-2,3-dihydro-1H-pyrrolo[2,3-c]pyridin-5-yl)-2H-pyrido[4,3-b][1,4]oxazin-3(4H)-one]
51.5%	74%	> 0.5 µM	C/C(NCCN1CCOCC1)=C1/C(=O)Nc2cnc(-c3cnccc3C)cc21 [Example 86, (Z)-5-(4-Methylpyridin-3-yl)-3-(1-((2-morpholinoethyl)amino)ethylidene)-1H-pyrrolo[2,3-c]pyridin-2(3H)-one]
83.6%	84.8%	< 0.05 µM	C/C(Nc1cnn(CCN2CCOCC2)c1)=C1/C(=O)Nc2cnc(-c3cnccc3C)cc21 [Example 87, (Z)-5-(4-Methylpyridin-3-yl)-3-(1-((1-(2-morpholinoethyl)-1H-pyrazol-4-yl)amino)ethylidene)-1H-pyrrolo[2,3-c]pyridin-2(3H)-one]
74.3%	87.6%	0.1 to 0.5 µM	C/C(Nc1cnn(C(C)(C)C#N)c1)=C1/C(=O)Nc2cnc(-c3c(C)noc3C)cc21 [Example 88, (Z)-2-(4-((1-(5-(3,5-Dimethylisoxazol-4-yl)-2-oxo-1H-pyrrolo[2,3-c]pyridin-3(2H)-ylidene)ethyl)amino)-1H-pyrazol-1-yl)-2-methylpropanenitrile]
77.3%	76%	< 0.05 µM	C/C(Nc1cnn(C(C)C)c1)=C1/C(=O)Nc2cnc(-c3cnccc3C)cc21 [Example 89, (Z)-3-(1-((1-Isopropyl-1H-pyrazol-4-yl)amino)ethylidene)-5-(4-methylpyridin-3-yl)-1H-pyrrolo[2,3-c]pyridin-2(3H)-one]
72.7%	75.6%	< 0.05 µM	CC(=O)N1CCC(n2cc(N/C(C)=C3\C(=O)Nc4cnc(-c5cnccc5C)cc43)cn2)CC1 [Example 90, (Z)-3-(1-((1-(1-Acetylpiperidin-4-yl)-1H-pyrazol-4-yl)amino)ethylidene)-5-(4-methylpyridin-3-yl)-1H-pyrrolo[2,3-c]pyridin-2(3H)-one]
79.7%	–	< 0.05 µM	CC/C(Nc1cnn(C(C)(C)C#N)c1)=C1/C(=O)Nc2cnc(-c3cnccc3C)cc21 [Example 91, (Z)-2-Methyl-2-(4-((1-(5-(4-methylpyridin-3-yl)-2-oxo-1H-pyrrolo[2,3-c]pyridin-3(2H)-ylidene)propyl)amino)-1H-pyrazol-1-yl)propanenitrile]
77%	80.3%	< 0.05 µM	CC/C(Nc1ccn(C(C)(C)C#N)n1)=C1/C(=O)Nc2cnc(-c3cnccc3C)cc21 [Example 92, (Z)-2-Methyl-2-(3-((1-(5-(4-methylpyridin-3-yl)-2-oxo-1H-pyrrolo[2,3-c]pyridin-3(2H)-ylidene)propyl)amino)-1H-pyrazol-1-yl)propanenitrile]
